Entries after “also recorded” stand apart in the source; their conditions may differ.

Data set [1] has as its system sheep kidneys. The data set is described as follows: Renal ischaemia-reperfusion injury in sheep (unilateral nephrectomy, 60 min renal ischaemia). The format is in vivo. The conditions noted are these: for ischaemic burden (area under curve, serum creatinine and serum urea): 0.5 mg/kg dosed at 24 hours and 4 hours pre-ischaemia, compared to controls and single 24 hr or 4 hr dosing; for inhibition of ischaemia-reperfusion injury, as measured by serum creatinine and urea levels / adverse effects of ischaemia-reperfusion in sheep kidneys (trend towards higher serum creatinine and urea levels): compared to controls. As to the method: (§1) Following the 4 hour injection, day 0 blood samples were taken.
Controls (n=4) received a unilateral nephrectomy and were administered saline at 24 hours and 4 hours prior to surgery.
Another group of sheep (n=1) received the Flavonoid based antioxidant (3′,4′ dihydroxyflavonol) at 6.6 mg/kg of body weight 1 hours prior to surgery.
Sheep were anaesthetised prior to surgery with intravenous sodium thiopentone (15 mg/kg) for endotracheal intubation (cuffed tube size 10). Maintenance of anaesthesia was carried out by means of oxygen/air/isoflurane (1.5-2.0%). Fractional inspired oxygen was altered to maintain PaO2 at approximately 100 mmHg, and ventilation was controlled to maintain PaCO2 at approximately 40 mmHg.
Following general anaesthesia, the right kidney was removed. A flow probe (4 mm) was implanted into the left kidney and the renal hilum (arteries and veins) supplying blood to the kidney were clamped using a vascular clamp for 60 minutes. […] General anaesthesia was then reversed and the sheep were allowed to recover. Renal blood flow was measured, blood samples were taken daily from the sheep over a 1-week period and the level of urea and creatinine was determined. Blood samples were collected into lithium heparin tubes (Microtainer, Becton-Dickinson). Blood samples were centrifuged and aliquots stored at −20° C. till analysis for creatinine and urea by the Clinical Trials Department, Austin Pathology, Heidelberg, Australia. Creatinine and urea in the blood serum samples were measured on a fully automated Roche Cobas 8000 c702 analyser. The kinetic colorimetric assay for creatinine determination is based on the Jaffé method. The kinetic colorimetric assay for urea is based on hydrolyzation of Urea to ammonium catalysed by urease followed by reaction of ammonium with 2-oxoglutarate in the presence of glutamate dehydrogenase and the coenzyme NADH. The rate of decrease in the NADH concentration is directly proportional to the urea concentration in the specimen and is measured photometrically.
As 0.5 mg/kg had been established as an effective dose to inhibit renal ischemia-reperfusion injury, the dosing experiments above were repeated to investigate the effect of multiple dosing. Sheep were subjected to uninephrectomy and 60 min of renal ischaemia followed by reperfusion. Serum creatinine and serum urea levels were measured before Zn pre-treatment (baseline), before ischaemia (Day 0) and for 7 days after reperfusion. […] Data are expressed as mean±SEM values (n=4, except 24 hr only group, n=1).

A short description of data set [2]: Tolerability of intravenous ZnCl2 in sheep. Format: in vivo. The conditions noted are these: 0.1 to 2 mg/kg of body weight i.v. at 24 hours and 4 hours prior to surgery; preliminary results. As to the method:
as §1

Data set [3] relates to HIF-1α. Put plainly: HIF-1α protein expression in ZnCl2-perfused human kidney tissue (Western Blot). As to the method: The blood supply to the excised tissue was provided by the renal artery into which the ZnCl2 solution was administered. In an initial study a 25% increase in HIF-1α expression in normal human kidney perfused with Zn compared to saline perfused tissue was observed.
(Immunoblotting shows a protein as a band on a membrane.)

Data set [4] deals with HIF-1α. The data set is described as follows: HIF-1α protein expression in HK-2 cells (Western blot). The format is cell-based, human. The settings on record: 50 μM ZnCl2, Western blot, at 4 hours following exposure, vs controls. The text has this:
(§2) Zn stimulated HIF1α in HK-2 cells.

Data set [5] has as its system HIF-1α. Put plainly: HIF-1α protein expression in ACHN cells (Western blot). The format is cell-based, human. The conditions noted are these: 50 μM ZnCl2, Western blot, at 4 hours following exposure, vs controls. The source says:
(§3) Zn stimulated HIF1α in ACHN cells.

Data set [6] concerns HIF-2α. Put plainly: HIF-2α protein expression in HK-2 cells (Western blot). Format: cell-based, human. The conditions noted are these: 50 μM ZnCl2, Western blot, 4 hours.
Text: as §2

Data set [7] concerns HIF-2α. Put plainly: HIF-2α protein expression in ACHN cells (Western blot). The format is cell-based, human. The conditions noted are these: 50 μM ZnCl2, Western blot, 4 hours.
Text: as §3

For data set [8], the system named is HIF-3α. The data set is described as follows: HIF-3α protein expression in HK-2 cells (Western blot). The conditions noted are these: 50 μM ZnCl2, Western blot. Format: cell-based, human.
Text: as §2

Data set [9] has as its system HIF-3α. The data set is described as follows: HIF-3α protein expression in ACHN cells (Western blot). The format is cell-based, human. The conditions noted are these: 50 μM ZnCl2, Western blot.
Text: as §3

Data set [10] deals with pAKT. The data set is described as follows: Phosphorylation of AKT in HK-2 cells (Western blot). Format: cell-based, human. The conditions noted are these: ZnCl2 for 4 hours.
Text: as §2

Data set [11] relates to pAKT. The data set is described as follows: Phosphorylation of AKT in ACHN cells (Western blot). Format: cell-based, human. The settings on record: ZnCl2 for 4 hours.
Text: as §3

The test system of data set [12] is sheep left ventricle myocardium. The data set is described as follows: Myocardial ischaemia-reperfusion in sheep (Evan's blue / TTC staining). Format: in vivo.
The test system of data set [13] is rats. The conditions noted are these: cited from earlier work.
The test system of data set [14] is mice. The conditions noted are these: cited from earlier work.
Data set [15] has as its system rats. The conditions noted are these: 191 mg zinc/kg/day as zinc acetate in drinking water for 3 months; cited from earlier work.
The subject of data set [16] is ferrets. The conditions noted are these: 390 mg zinc/kg of body weight per day as zinc oxide in the diet for 3-13 days; cited from earlier work.
For data set [17], the system named is humans. The conditions noted are these: cited from earlier work.
Where [18] appears, read: 0.1 mg/kg of body weight i.v. at 24 hours and 4 hours prior to 60 min ischaemia.
Where [19] appears, read: 0.5 mg/kg of body weight i.v. at 24 hours and 4 hours prior to 60 min ischaemia.

For the compound `[Cl-].[Cl-].[Zn+2]` [ZnCl2, zinc chloride], the “serum creatinine levels when compared to controls” value in data set [1] (setting [18]) and in data set [1] (setting [19]) was “marked reduction” throughout. The “serum urea levels when compared to controls” value in [1] (setting [18]) and in data set [1] (setting [19]) was “marked reduction” each time. Besides, the entries for the “ischaemic burden (area under curve, serum creatinine and serum urea)” value in data set [1] and in data set [1] (listed as zinc) were “significantly (p<0.05) reduced” and “reduced significantly”, respectively. Moreover, the “reduction of ischaemic burden (AUC values for serum creatinine and serum urea)” value in data set [1] (0.5 mg/kg zinc, compared to control animals) was around 70%. The “inhibition of ischaemia-reperfusion injury, as measured by serum creatinine and urea levels” value in [1] (1.0 mg/kg of body weight), in data set [1] (2.5 mg/kg of body weight) and in data set [1] (10.0 mg/kg of body weight) was “failed to inhibit” throughout. Also, the “adverse effects of ischaemia-reperfusion in sheep kidneys (trend towards higher serum creatinine and urea levels)” value in [1] (2.5 mg/kg of body weight, listed as ZnCl) is “appeared to worsen”; in [1] (2.5 mg/kg of body weight, listed as zinc), “worsened renal function”; in [1] (10.0 mg/kg of body weight, listed as ZnCl), “appeared to worsen”; in data set [1] (10.0 mg/kg of body weight, listed as zinc), “worsened renal function”. Moreover, the “renal function following ischaemia-reperfusion injury, as determined by serum creatinine and serum urea levels” value in [1] (greater than or equal to 1 mg/kg of body weight, intravascular) is “did not improve renal function”. Moreover, in data set [1] (two doses of 0.5 mg/kg at 24 and 4 hr prior to ischaemia, compared to single dose at either 24 hr or 4 hr, p<0.05, 0.5 mg/kg), the “creatinine rise over time” value is recorded as “significantly (p<0.05) reduced”. Also, the “tolerability / adverse effects” value in [2] is “without any adverse effects”. Further, the “increase in HIF-1α expression” value in data set [3] (50 μM ZnCl2 perfused via segmental renal artery, compared to saline perfused tissue, initial study) came out at 25%. Further, in [3] (zinc chloride preconditioning (50 μM perfusion), Western Blot), the “HIF-1α protein expression in human kidney tissue” value is listed as “enhanced”. For the same compound, the HIF-1α protein expression result in data set [4] is recorded as “increase”; in [4] (listed as Zinc chloride), “enhanced”; in data set [4] (listed as Zn), “stimulated”; in [4] (listed as zinc) it was “stimulates”; in [5] it was “increase”; in data set [5] (listed as Zinc chloride), “enhanced”. The HIF-1α protein expression entry in [5] (listed as Zn) is on record as “stimulated”; in data set [5] (listed as zinc), “stimulates”. The HIF-2α protein expression entry in data set [6] was “increase”; in [6] (listed as zinc), “stimulated”; in [7] it was “increase”; in [7] (listed as zinc) it was “stimulated”. The HIF-3α protein expression entry in [8] and in [9] was “not” each time. Further, the “phosphorylation of AKT” value in [10] and in data set [11] was “stimulated phosphorylation” each time. In addition, the “infarct in the area of myocardium at risk” value in data set [12] (dual doses of 0.5 mg/kg ZnCl2 at 24 hours and 4 hours prior to 1 hour ischemia and 3 hour reperfusion) was “no histological signs of an infarct”. Moreover, in data set [12] (dual doses of 0.5 mg/kg ZnCl2 at 24 hours and 4 hours prior to myocardial ischaemia, compared to untreated sheep, 0.5 mg/kg), the “white (infarcted) areas after TTC staining of left ventricle rings” value is given as “very little white staining; also recorded: Absence of white areas”.

Turning to `O=c1c(O)c(-c2ccc(O)c(O)c2)oc2ccccc12` [antioxidant, 3′,4′ dihydroxyflavonol, reference compound], the “decrease of ischaemic burden (AUC values for serum creatinine and serum urea)” value in data set [1] (antioxidant 6.6 mg/kg of body weight 1 hours prior to surgery (n=1)) is listed as 50%.

As for `CC(=O)[O-].CC(=O)[O-].[Zn+2]` [zinc acetate], the “relative lethality (LD50 ranking)” value in [13] was “most lethal compound tested”; in data set [14], “most lethal compound”. In data set [15], the mortality result is listed as “Mortality has also been observed”.

With `[O]=[Zn]` [zinc oxide], the “lethality (ferrets dead of ferrets dosed)” value in data set [16] is listed as 3 of 3.

For zinc gluconate, the toxic effects entry in [17] (about 2,000-4,000 mg/day of zinc gluconate) was “anemia (consistent with zinc-induced copper deficiency), severe nephrosis, nausea, vomiting, dehydration, electrolyte imbalances, dizziness, lethargy and incoordination, epigastric pain and abdominal pain”.

zinc sulfate: the “outcome of zinc overdose” value in [17] (oral ingestion of zinc sulfate in large amounts (≥30,000 mg)) is “can result in death”.

The values are drawn from patent publication US20240238195A1, “METHODS AND COMPOSITIONS FOR INHIBITING A NOXIOUS INSULT” (priority 2018, published 2024).
